Test results: patent US10563267B2, “Polymorphism biomarkers predict clinical outcomes of cancer patients receiving regorafenib” (University of Southern California, priority 2016, dated 2020)

Columns and labels:
cancer patients [1] = assay: Clinical outcome (OS, PFS, tumor response) of cancer patients treated with regorafenib, by SNP genotype; type: in vivo, human
Protocol: Further, single nucleotide polymorphisms (SNPs) of genes involved in various angiogenic pathways were evaluated for their ability to predict clinical outcomes for cancer patient treated with a therapy comprising regorafenib or an equivalent thereof.
Still further, combinations of single nucleotide polymorphisms (SNPs) of genes involved in various angiogenic pathways were evaluated for their ability to predict clinical outcomes for cancer patient treated with a therapy comprising regorafenib or an equivalent thereof.
Genomic DNA was obtained from cancer patients in therapies comprising regorafenib or an equivalent thereof and analyzed by using PCR-based direct sequencing. Multiple functional SNPs in 11 genes (NOTCH1, IL8, CCL5, DLL4, PLGF, ANG2, TIE1, PDGFRB, VEGFR2, EGFC and VEGFA) were tested.
PCR and product sequencing were done using standard procedures. Uni- and multivariate analyses, adjusting for age, gender, rash and racial background, were carried out.

cancer patients [2] = assay: Hand foot skin reaction (HFSR) in cancer patients receiving regorafenib, by ethnicity; type: in vivo, human
Protocol: HFSR of grade 3-4 are among the most common grade 3-4 […] reactions associated with a therapy with regorafenib or an equivalent thereof. In this example, single nucleotide polymorphisms (SNPs) of CCL5 were evaluated for their ability to predict the likelihood for a patient to experience HFSR from a therapy comprising an effective amount of regorafenib or an equivalent thereof.
Genomic DNA was obtained from more than 200 cancer patients receiving regorafenib and analyzed by using PCR-based direct sequencing. SNPs in CCL5 were tested to discover that the rarity (<1%) of the genotype of (G/G) for the rs2280789 polymorphism and/or the rs3817655 polymorphism (the genotype of (G/G) for the rs2280789 polymorphism and/or the rs3817655 are seen in 10% in Asian (Japanese) and 1% in Caucasian (Italian)) relates to the significant ethnic difference in severe HFSR developed by Caucasian patients compared to Japanese patients (grade 3 HFSR 16% vs 33.8% respectively, p=0.003).

[3] = VEGFR2 rs2071559 A/Variant + NOTCH1 rs3125001 C/C + ANG2 rs2916702 A/Variant carriers
[4] = VEGFR2 rs2071559 A/Variant + NOTCH1 rs3125001 C/C + ANG2 rs2916702 G/G carriers
[5] = VEGFR2 rs2071559 A/Variant + NOTCH1 rs3125001 T/Variant carriers
[6] = VEGFR2 rs2071559 A/variant carriers (N=111)

## CNC(=O)c1cc(Oc2ccc(NC(=O)Nc3ccc(Cl)c(C(F)(F)F)c3)c(F)c2)ccn1 [regorafenib]
Cancer patients [1]; TIE1 A/A + Plgf C/C vs TIE1 G/Variant carriers (HR reference), multivariate
  HR for OS: 0.22
Cancer patients [1]; TIE1 A/A + Plgf T/Variant vs TIE1 G/Variant carriers (HR reference), multivariate
  HR for OS: 0.79
Cancer patients [1]; TIE1 rs7527092 A/A (N=41)
  median OS: 4.7 months
Cancer patients [1]; TIE1 rs7527092 A/A + Plgf rs2268614 C/C carriers (N=9)
  median OS: 2.6 months
Cancer patients [1]; TIE1 rs7527092 A/A + Plgf rs2268614 T/Variant carriers (N=32)
  median OS: 5.8 months
Cancer patients [1]; TIE1 rs7527092 A/A vs G/variant carriers, multivariate, p=0.0063
  HR for OS: 1.72
Cancer patients [1]; TIE1 rs7527092 A/A vs G/variant carriers, univariate, p=0.0303
  HR for OS: 1.49
Cancer patients [1]; TIE1 rs7527092 G/Variant carriers (N=109)
  median OS: 7.8 months
Cancer patients [1]; TIE1 rs7527092 G/variant carriers (N=106)
  median OS: 7.8 months
Cancer patients [1]; [3]
  patients non-responsive (tumor response): 7
  patients responsive (tumor response): 16
Cancer patients [1]; [4]
  patients non-responsive (tumor response): 6
  patients responsive (tumor response): 2
Cancer patients [1]; [5]
  patients non-responsive (tumor response): 49
  patients responsive (tumor response): 25
Cancer patients [1]; [6]
  median OS: 7.0 months
  median PFS: 2.3 months
  response (positive): 41%
Cancer patients [1]; VEGFR2 rs2071559 G/G (N=39)
  median OS: 4.7 months
  median PFS: 1.8 months
  response (positive): 18%
Cancer patients [1]; VEGFR2 rs2071559 G/G carriers
  patients non-responsive (tumor response): 31
  patients responsive (tumor response): 7
Cancer patients [1]; VEGFR2 rs2071559 G/G vs A/variant carriers, multivariate, p=0.0197
  HR for PFS: 1.59
Cancer patients [1]; VEGFR2 rs2071559 G/G vs A/variant carriers, univariate, p=0.0250
  HR for PFS: 1.49
Cancer patients [1]; VEGFR2 rs2071559 G/G vs A/variant carriers, univariate, p=0.0452
  HR for OS: 1.45
Cancer patients [1]; high-risk group: VEGFR2 rs2071559 G/G + NOTCH1 rs6563 A/A (N=15) together with G/G + NOTCH1 G/Variant + ANG2 rs2442599 A/A (N=11)
  median PFS: 1.7 months
Cancer patients [1]; low-risk group: VEGFR2 rs2071559 A/variant (N=111) together with G/G + NOTCH1 rs6563 G/Variant + ANG2 rs2442599 G/Variant (N=13)
  median PFS: 2.3 months
Cancer patients [1]; tree model high-risk vs low-risk group (VEGFR2/NOTCH1/ANG2), multivariate, log-rank P<0.001
  HR for PFS: 0.41
Cancer patients [2]; Caucasian (Italian) patients receiving regorafenib
  grade 3 HFSR: 16%
Cancer patients [2]; Japanese patients receiving regorafenib
  grade 3 HFSR: 33.8%
